In US20200172483A1, “HETEROCYCLIC SMALL MOLECULE MODULATORS OF HUMAN STING” (Curadev Pharma Limited, priority 2017, published 2020):

Target: T1, WT/R232 STING protein (Homo sapiens, UniProt Q86WV6, H232R)
T1 construct: host or cells: HEK293T
Assay: Luciferase reporter assay in HEK293T-hSTING-Luciferase cells (R232)
Type: cell-based
Conditions: 20 hr stimulation, EC50 range
From the text: • a) Stable STING expressing cells—Stable HEK293T STING-expressing cell lines were generated using plasmids purchased from Invivogen, CA, USA, that contain STING cDNA cloned into the pUNO-1 vector under hEF1-HTLV promoter and containing the Blasticidin selection cassette. The plasmids hSTING (R232), hSTING (H232), hSTING (HAQ) were directly procured from Invivogen while hSTING (AQ) and hSTING (Q) were derived from hSTING (HAQ) and hSTING (R232) plasmids respectively by using a PCR based site directed mutagenesis method. These vectors were individually transfected into HEK293T cells using Lipofectamine (Invitrogen) and transfected cells were selected under Blasticidin selection. These transfected cells were further subjected to clonal selection using the limiting dilution method to obtain clonally pure populations of HEK cells transfected with each of the above mentioned human STING variants. Only those clones were selected in which ligand independent activation of STING was minimal. • b) Stable Luciferase reporter gene expressing cells—Stable HEK293T Luciferase reporter gene expressing cell lines were generated using pCDNA4 plasmids under an IRF-inducible promoter. This promoter is comprised of five tandem interferon-stimulated response elements (ISRE) fused to an ISG54 minimal promoter. This vector was transfected into HEK293T cells using Lipofectamine (Invitrogen) and transfected cells were selected under Zeocin selection. These transfected cells were further subjected to clonal selection using the limiting dilution method to obtain clonally pure populations of HEK cells transfected the Luciferase reporter construct. Only those clones were selected in which ligand independent induction of luciferase was minimal.
5×10^5 clonally selected HEK293T-hSTING-Luciferase cells were seeded in 384-well plates in growth medium and stimulated with novel compounds. After 20 hr of stimulation supernatant were removed and secretary reporter gene activity were measured using the Quanti-Luc detection system (Invivogen) on a Spectramax i3X luminometer.
All compounds were first tested in a primary screen using WT/R232 STING protein to obtain a ‘fold-induction’ over baseline levels of protein activity.

T1 sequence (Q86WV6 whole entry H232R): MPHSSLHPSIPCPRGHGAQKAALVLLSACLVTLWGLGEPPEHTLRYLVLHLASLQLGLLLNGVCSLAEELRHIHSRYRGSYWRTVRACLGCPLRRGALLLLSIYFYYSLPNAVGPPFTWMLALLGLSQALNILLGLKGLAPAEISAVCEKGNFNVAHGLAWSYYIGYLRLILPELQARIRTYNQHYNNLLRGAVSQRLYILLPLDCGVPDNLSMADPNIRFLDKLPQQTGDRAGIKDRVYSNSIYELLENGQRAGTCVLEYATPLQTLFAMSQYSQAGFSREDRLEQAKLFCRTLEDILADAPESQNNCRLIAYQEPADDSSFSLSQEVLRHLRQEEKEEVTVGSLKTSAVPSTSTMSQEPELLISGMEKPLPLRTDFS

Row | Compound | EC50 [µM]
1 | Cn1cccc1CNC(=O)c1ccc2c(c1)N(Cc1c(F)cccc1Cl)C(=O)C2(C)C [Example 127, 1-(2-chloro-6-fluorobenzyl)-3,3-dimethyl-N-((1-methyl-1H-pyrrol-2-yl)methyl)-2-oxoindoline-6-carboxamide] | > 10
2 | CC1(O)C(=O)N(Cc2c(F)cccc2Cl)c2cc(C(=O)NCc3c(F)cc(F)cc3F)ccc21 (stereo not shown) [Example 143, 1-(2-Chloro-6-fluorobenzyl)-3-hydroxy-3-methyl-2-oxo-N-(2,4,6-trifluorobenzyl)indoline-6-carboxamide] | > 10
3 | CC1(C)c2ccc(C(=O)NCc3c(F)cc(F)cc3F)cc2N(Cc2c(F)cccc2Cl)S1(=O)=O [Example 134, 1-(2-Chloro-6-fluorobenzyl)-3,3-dimethyl-N-(2,4,6-trifluorobenzyl)-1,3-dihydrobenzo[c]isothiazole-6-carboxamide 2,2-dioxide] | > 10
4 | CC1(C)C(=O)N(Cc2cccc3c2OC(F)(F)O3)c2cc(C(=O)NCc3c(F)cc(F)cc3F)ccc21 [Example 105, 1-((2,2-difluorobenzo[d][1,3]dioxol-4-yl)methyl)-3,3-dimethyl-2-oxo-N-(2,4,6-trifluorobenzyl)indoline-6-carboxamide] | 1 to 10
5 | CC1(C)C(=O)N(Cc2ccccc2F)c2cc(C(=O)N(CC(=O)O)Cc3ccco3)ccc21 [Example 3, 2-(1-(2-fluorobenzyl)-N-(furan-2-ylmethyl)-3,3-dimethyl-2-oxoindoline-6-carboxamido)acetic acid] | > 10
6 | COC1(C)C(=O)N(Cc2c(F)cccc2Cl)c2cc(C(=O)NCc3c(F)cc(F)cc3F)ccc21 (stereo not shown) [Example 151] | 1 to 10
7 | O=C(NCc1c(F)cc(F)cc1F)c1ccc2c(c1)N(Cc1c(F)cccc1Cl)C(=O)C2=O [Example 142, 1-(2-Chloro-6-fluorobenzyl)-2,3-dioxo-N-(2,4,6-trifluorobenzyl)indoline-6-carboxamide] | > 10
8 | CC1(C)CN(C(=O)c2c(F)cccc2Cl)c2cc(C(=O)NCc3ccco3)ccc21 [Example 132, 1-(2-chloro-6-fluorobenzoyl)-N-(furan-2-ylmethyl)-3,3-dimethylindoline-6-carboxamide] | > 10
9 | COc1cc(F)c(CN2C(=O)C(C)(C)c3ccc(C(=O)NCc4c(F)cc(F)cc4F)cc32)c(F)c1 [Example 64, 1-(2,6-difluoro-4-methoxybenzyl)-3,3-dimethyl-2-oxo-N-(2,4,6-trifluorobenzyl)indoline-6-carboxamide] | ≤ 1
10 | CCC1(O)C(=O)N(Cc2c(F)cccc2Cl)c2cc(C(=O)NCc3c(F)cc(F)cc3F)ccc21 (stereo not shown) [Example 158, 1-(2-chloro-6-fluorobenzyl)-3-ethyl-3-hydroxy-2-oxo-N-(2,4,6-trifluorobenzyl)indoline-6-carboxamide] | > 10
11 | O=C(NCc1ccco1)c1ccc2c(c1)N(Cc1c(F)cccc1Cl)C(=O)C21CC1 [Example 139, 1′-(2-chloro-6-fluorobenzyl)-N-(furan-2-ylmethyl)-2′-oxospiro[cyclopropane-1,3′-indoline]-6′-carboxamide] | > 10
12 | O=C(NCc1ccco1)c1ccc2c(c1)N(Cc1c(F)cccc1Cl)S(=O)(=O)C2 [Example 140, 1-(2-chloro-6-fluorobenzyl)-N-(furan-2-ylmethyl)-1,3-dihydrobenzo[c]isothiazole-6-carboxamide 2,2-dioxide] | > 10
13 | CC1(C)C(=O)N(Cc2c(F)cccc2C(F)(F)F)c2cc(C(=O)NCc3c(F)cc(F)cc3F)ccc21 [Example 84, 1-(2-fluoro-6-(trifluoromethyl)benzyl)-3,3-dimethyl-2-oxo-N-(2,4,6-trifluorobenzyl)indoline-6-carboxamide] | 1 to 10
14 | Cc1cccc(C)c1CN1C(=O)C(C)(C)c2ccc(C(=O)NCc3c(F)cc(F)cc3F)cc21 [Example 110, 1-(2,6-dimethylbenzyl)-3,3-dimethyl-2-oxo-N-(2,4,6-trifluorobenzyl)indoline-6-carboxamide] | 1 to 10
15 | CC1(C)C(=O)N(Cc2c(F)cccc2Cl)c2cc(C(=O)NCc3cccs3)ccc21 [Example 7, 1-(2-chloro-6-fluorobenzyl)-3,3-dimethyl-2-oxo-N-(thiophen-2-ylmethyl)indoline-6-carboxamide] | 1 to 10
16 | CC1(C)C(=O)N(Cc2cccc(C(N)=O)c2F)c2cc(C(=O)NCc3c(F)cc(F)cc3F)ccc21 [Example 79, 1-(3-carbamoyl-2-fluorobenzyl)-3,3-dimethyl-2-oxo-N-(2,4,6-trifluorobenzyl)indoline-6-carboxamide] | 1 to 10

Further lines, results first:

Row | EC50 [µM] | Compound
17 | 1 to 10 | CC1(C)C(=O)N(Cc2cc(F)cc(F)c2)c2nc(C(=O)NCc3ccc(C#N)cc3)ccc21 [Example 192, N-(4-cyanobenzyl)-1-(3,5-difluorobenzyl)-3,3-dimethyl-2-oxo-2,3-dihydro-1H-pyrrolo[2,3-b]pyridine-6-carboxamide]
18 | > 10 | Cc1ccc(CNC(=O)c2cnc3c(c2)N(Cc2c(C)cccc2F)C(=O)C3(C)C)o1 [Example 196, 1-(2-fluoro-6-methylbenzyl)-3,3-dimethyl-N-((5-methylfuran-2-yl)methyl)-2-oxo-2,3-dihydro-1H-pyrrolo[3,2-b]pyridine-6-carboxamide]
19 | 1 to 10 | CC1(C)C(=O)N(Cc2ccccn2)c2cc(C(=O)NCc3c(F)cc(F)cc3F)ccc21 [Example 99, 3,3-dimethyl-2-oxo-1-(pyridin-2-ylmethyl)-N-(2,4,6-trifluorobenzyl)indoline-6-carboxamide]
20 | > 10 | CC1(N)C(=O)N(Cc2ccccc2F)c2cc(C(=O)NCc3c(F)cc(F)cc3F)ccc21 (stereo not shown) [Example 154, 3-amino-1-(2-fluorobenzyl)-3-methyl-2-oxo-N-(2,4,6-trifluorobenzyl)indoline-6-carboxamide]
21 | > 10 | Cc1nnc(CNC(=O)c2ccc3c(c2)N(Cc2cc(F)cc(F)c2)C(=O)C3(C)C)o1 [Example 29, 1-(3,5-difluorobenzyl)-3,3-dimethyl-N-((5-methyl-1,3,4-oxadiazol-2-yl)methyl)-2-oxoindoline-6-carboxamide]
22 | > 10 | CC1(C)C(=O)N(Cc2cc(F)cc(F)c2)c2c1ccc(C(=O)NCc1c(F)cc(F)cc1F)c2F [Example 35, 1-(3,5-difluorobenzyl)-7-fluoro-3,3-dimethyl-2-oxo-N-(2,4,6-trifluorobenzyl)indoline-6-carboxamide]
23 | 1 to 10 | CC1(C)C(=O)N(Cc2ccncc2)c2cc(C(=O)NCc3c(F)cc(F)cc3F)ccc21 [Example 22, 3,3-dimethyl-2-oxo-1-(pyridin-4-ylmethyl)-N-(2,4,6-trifluorobenzyl)indoline-6-carboxamide]
24 | 1 to 10 | CC1(C)C(=O)N(Cc2cc(F)cc(F)c2)c2cc(C(=O)NCc3c(F)cc(F)cc3F)cnc21 [Example 179, 1-(3,5-Difluorobenzyl)-3,3-dimethyl-2-oxo-N-(2,4,6-trifluorobenzyl)-2,3-dihydro-1H-pyrrolo[3,2-b]pyridine-6-carboxamide]
25 | 1 to 10 | CC1(C)C(=O)N(Cc2c(F)cccc2Cl)c2cc(C(=O)NCc3cc4cc(O)ccc4o3)ccc21 [Example 88, 1-(2-chloro-6-fluorobenzyl)-N-((5-hydroxybenzofuran-2-yl)methyl)-3,3-dimethyl-2-oxoindoline-6-carboxamide]
26 | > 10 | CC1(C)C(=O)N(Cc2cccc(F)c2)c2cc(C(=O)NCc3ccco3)ccc21 [Example 42, 1-(3-fluorobenzyl)-N-(furan-2-ylmethyl)-3,3-dimethyl-2-oxoindoline-6-carboxamide]
27 | 1 to 10 | CC1(C)C(=O)N(Cc2cc(F)cc(F)c2)c2cc(C(=O)NCc3ccc(F)o3)ccc21 [Example 69, 1-(3,5-difluorobenzyl)-N-((5-fluorofuran-2-yl)methyl)-3,3-dimethyl-2-oxoindoline-6-carboxamide]
28 | > 10 | Cc1nc(CN2C(=O)C(C)(C)c3ccc(C(=O)NCc4c(F)cc(F)cc4F)cc32)co1 [Example 83, 3,3-dimethyl-1-((2-methyloxazol-4-yl)methyl)-2-oxo-N-(2,4,6-trifluorobenzyl)indoline-6-carboxamide]
29 | > 10 | CC1(C)C(=O)N(Cc2cc(F)cc(F)c2)c2cc(C(=O)NCc3cc4ccccc4o3)cnc21 [Example 193, N-(benzofuran-2-ylmethyl)-1-(3,5-difluorobenzyl)-3,3-dimethyl-2-oxo-2,3-dihydro-1H-pyrrolo[3,2-b]pyridine-6-carboxamide]
30 | > 10 | Cc1cccc(CNC(=O)c2ccc3c(c2)N(Cc2cc(F)cc(F)c2)C(=O)C3(C)C)n1 [Example 28, 1-(3,5-difluorobenzyl)-3,3-dimethyl-N-((6-methylpyridin-2-yl)methyl)-2-oxoindoline-6-carboxamide]
31 | > 10 | Cc1ncc(CNC(=O)c2ccc3c(c2)N(Cc2c(F)cccc2Cl)C(=O)C3(C)C)o1 [Example 31, 1-(2-chloro-6-fluorobenzyl)-3,3-dimethyl-N-((2-methyloxazol-5-yl)methyl)-2-oxoindoline-6-carboxamide]
